# Data: PMC7125863 (Bioorganic & Medicinal Chemistry, 2013)
# Tests used:
# HIV-1 RT K103N/Y181C = HIV-1 RT K103N/Y181C (Human immunodeficiency virus type 1 group M subtype B, UniProt P04585, K690N/Y768C); assay: biochemical
# HIV-1 (IIIB) wild type = assay: Anti-HIV assay in MT-4 cell cultures; details: MT-4 cells
# [1] = system: human cytomegalovirus (HCMV) strain AD-169; assay: Anti-HCMV assay, strain AD169; type: cell-based; details: in parentheses
# [2] = system: human cytomegalovirus (HCMV) strain Davis; assay: Anti-HCMV assay, strain Davis; type: cell-based; details: in parentheses
# in vitro = details: human
# [3] = target: wild-type HIV-1 reverse transcriptase (Human immunodeficiency virus type 1 group M subtype B, UniProt P04585); assay: RT enzyme assay, wild-type RT; type: biochemical
# HIV-1 RT K103N = HIV-1 RT K103N (Human immunodeficiency virus type 1 group M subtype B, UniProt P04585, K690N); assay: biochemical
Compound,SI [1],SI [2],CC50 (in vitro),also measured
"O=c1ccn(C/C=C/c2ccccc2)c(=O)n1Cc1cc(Br)cc(Br)c1 [Compound 33, 1-Cinnamyl-3-(3,5-dibromobenzyl)uracil]",,,,Ki (HIV-1 RT K103N/Y181C): > 100 µM
"Cc1ccc(OCCn2ccc(=O)n(Cc3cccc(C)c3)c2=O)cc1 [Compound 16, 3-(3-Methylbenzyl)-1-[2-(4-methylphenoxy)ethyl]uracil]",,,,"SI, selectivity index, ratio CC50/IC50 (HIV-1 (IIIB) wild type): ⩾11"
"O=c1ccn(C/C=C/c2ccccc2)c(=O)n1Cc1cccc2ccccc12 [Compound 35, 1-Cinnamyl-3-(1-naphthylmethyl)uracil]",7,16,≥ 100 µM,
"Cc1cc(C)cc(Cn2c(=O)ccn(C/C=C/c3ccccc3)c2=O)c1 [Compound 30, 1-Cinnamyl-3-(3,5-dimethylbenzyl)uracil]",,,,Ki (HIV-1 RT K103N/Y181C): > 100 µM
"Cc1ccccc1OCCn1ccc(=O)n(Cc2ccccc2)c1=O [Compound 5, 3-Benzyl-1-[2-(2-methylphenoxy)ethyl]uracil]",,,,Ki [3]: > 100 µM
"Cc1ccc(OCCn2ccc(=O)n(Cc3ccccc3C)c2=O)cc1 [Compound 15, 3-(2-Methylbenzyl)-1-[2-(4-methylphenoxy)ethyl]uracil]",,,,Ki [3]: > 100 µM
"Cc1cccc(OCCn2ccc(=O)n(Cc3ccccc3)c2=O)c1 [Compound 6, 3-Benzyl-1-[2-(3-methylphenoxy)ethyl]uracil]",,,,Ki [3]: > 100 µM
"Cc1ccc(OCCn2ccc(=O)n(Cc3cc(C)cc(C)c3)c2=O)cc1 [Compound 19, 1-[2-(4-Methylphenoxy)ethyl]-3-(3,5-dimethylbenzyl)uracil]",,,,Ki (HIV-1 RT K103N): > 26 µM; Ki (HIV-1 RT K103N/Y181C): > 26 µM
"Cc1cc(Br)cc(Cn2c(=O)ccn(C/C=C/c3ccccc3)c2=O)c1 [Compound 34, 3-(3-Bromo-5-methylbenzyl)-1-cinnamyluracil]",6,5,≥ 100 µM,
"O=c1ccn(C/C=C/c2ccccc2)c(=O)n1Cc1cc(Cl)cc(Cl)c1 [Compound 32, 1-Cinnamyl-3-(3,5-dichlorobenzyl)uracil]",11,9,≥ 100 µM,Ki (HIV-1 RT K103N/Y181C): > 100 µM
"Nc1nc2c(ncn2COC(CO)CO)c(=O)[nH]1 [Ganciclovir, reference compound]",21,23,132 µM,
"O=c1ccn(C/C=C/c2ccccc2)c(=O)n1Cc1cc(F)cc(F)c1 [Compound 31, 1-Cinnamyl-3-(3,5-difluorobenzyl)uracil]",1.38,1.13,51 µM,
"Cc1ccc(OCCn2ccc(=O)n(Cc3c(C)cc(C)cc3C)c2=O)cc1 [Compound 20, 1-[2-(4-Methylphenoxy)ethyl]-3-(2,4,6-trimethylbenzyl)-uracil]",,,,Ki [3]: > 100 µM
"Nc1ccn(C[C@@H](CO)OCP(=O)(O)O)c(=O)n1.O.O [Cidofovir, reference compound]",64,63,63 µM,
